Measured values taken from ChEMBL document CHEMBL5727654 (2020).
pIC50: −log10 of the molar value.

Biological target: T1, Signal transducer and activator of transcription 1-alpha/beta (Homo sapiens, UniProt P42224)
T1 sequence (P42224 whole entry): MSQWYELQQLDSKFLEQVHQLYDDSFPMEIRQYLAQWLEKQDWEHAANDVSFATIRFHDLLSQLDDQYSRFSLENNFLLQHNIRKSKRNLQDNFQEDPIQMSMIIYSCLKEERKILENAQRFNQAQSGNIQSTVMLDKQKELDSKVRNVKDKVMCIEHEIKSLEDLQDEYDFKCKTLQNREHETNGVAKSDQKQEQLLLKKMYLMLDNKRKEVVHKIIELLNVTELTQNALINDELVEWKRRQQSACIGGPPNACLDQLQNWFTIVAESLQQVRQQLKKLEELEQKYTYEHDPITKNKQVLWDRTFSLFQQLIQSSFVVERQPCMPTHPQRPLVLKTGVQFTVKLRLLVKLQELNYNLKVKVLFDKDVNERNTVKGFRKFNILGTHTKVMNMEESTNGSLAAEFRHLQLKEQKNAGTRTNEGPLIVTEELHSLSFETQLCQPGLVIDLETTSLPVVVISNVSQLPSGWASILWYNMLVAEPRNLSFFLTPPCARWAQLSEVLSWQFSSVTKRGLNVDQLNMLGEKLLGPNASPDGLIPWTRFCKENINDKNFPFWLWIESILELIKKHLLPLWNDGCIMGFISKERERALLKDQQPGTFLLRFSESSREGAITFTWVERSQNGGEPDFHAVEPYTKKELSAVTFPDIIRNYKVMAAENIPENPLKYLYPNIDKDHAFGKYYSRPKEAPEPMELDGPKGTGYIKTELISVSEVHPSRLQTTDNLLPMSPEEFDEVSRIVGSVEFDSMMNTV
Assay: Bioassay Evaluation: Compound samples (in 3-5 mg quantities) were evaluated in a variety of assays. All compound submissions were fully characterized (1H, 13C, IR, HRMS), satisfied purity criteria (≥95% LC/MC, ELS).
Type: single protein

pIC50: 4.39
SMILES: COc1ccc(C2=Nn3c(nnc3-c3[nH]nc4c3CCC4)SC2)cc1
